Experimental data published in patent US5231093A, “Carbamate derivatives of 4-amino-3-isoxazolidinones, 3-amino-1-hydroxypyrrolidin-2-ones and 1-amino-1-cyclopropanecarboxylic acid analogs” (priority 1992, dated 1993).
Where a name gives a salt, the structure may show the parent alone. Read-outs that look alike come from different tables or passages of the source.

Tests used:
[1] = system: Scopolamine Induced Memory Deficit; assay type: in vivo, mice
Description: In this assay mice are tested for their ability to remember an unpleasant stimulus for a period of 24 hours. A mouse is placed in a chamber that contains a dark compartment; a strong incandescent light drives it to the dark compartment, where an electric shock is administered through metal plates on the floor. The animal is removed from the testing apparatus and tested again, 24 hours later, for the ability to remember the electric shock.
If scopolamine, an anticholinergic agent that is known to cause memory impairment, is administered before an animal's initial exposure to the test chamber, the animal re-enters the dark compartment shortly after being placed in the test chamber 24 hours later. This effect of scopolamine is blocked by an active test compound, resulting in a greater interval before re-entry into the dark compartment.
The results for an active compound are expressed as the percent of a group of animals in which the effect of scopolamine is blocked, as manifested by an increased interval between being placed in the test chamber and re-entering the dark compartment.
Results of this assay for some of the compounds of this invention and those for tacrine (reference compound) are presented in Table 2.

acetylcholinesterase = target: T1, acetylcholinesterase (Rattus norvegicus, UniProt P37136); experiment: In Vitro Inhibition of Acetylcholinesterase Activity in Rat Striatum; assay type: biochemical
T1 construct: corpora striata dissected free, weighed and homogenized in 19 volumes; from tissue; host or cells: corpus striatum of male Wistar rats, whole homogenate in 0.05M phosphate buffer pH 7.2
T1 sequence (P37136 32-614): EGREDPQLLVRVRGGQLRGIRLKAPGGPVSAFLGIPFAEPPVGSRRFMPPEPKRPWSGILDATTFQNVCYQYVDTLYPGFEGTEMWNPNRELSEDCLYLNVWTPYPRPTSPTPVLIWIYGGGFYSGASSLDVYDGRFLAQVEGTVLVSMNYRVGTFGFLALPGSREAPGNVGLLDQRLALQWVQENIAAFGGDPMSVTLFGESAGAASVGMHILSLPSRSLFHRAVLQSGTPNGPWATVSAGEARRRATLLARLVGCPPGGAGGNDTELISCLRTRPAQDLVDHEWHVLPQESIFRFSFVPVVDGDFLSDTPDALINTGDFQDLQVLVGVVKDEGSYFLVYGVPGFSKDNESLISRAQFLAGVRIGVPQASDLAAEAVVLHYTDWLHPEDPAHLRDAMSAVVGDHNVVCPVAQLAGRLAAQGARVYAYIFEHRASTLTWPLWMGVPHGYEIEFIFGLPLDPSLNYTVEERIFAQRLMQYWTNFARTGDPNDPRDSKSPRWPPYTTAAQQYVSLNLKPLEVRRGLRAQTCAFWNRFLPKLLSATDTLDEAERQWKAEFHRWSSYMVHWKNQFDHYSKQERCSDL
Description: Cholinesterases are found throughout the body, both in the brain and in serum. However, only brain acetylcholinesterase (AChE) distribution is correlated with central cholinergic innervation.
The method described below was used in this invention for assaying cholinesterase activity. This is a modification of the method of Ellman et al., Biochem. Pharmacol. 7, 88 (1961).
1. 0.05M Phosphate buffer, pH 7.2
(c) add (a) to (b) until pH reaches 7.2
4. […] Drugs are serially diluted (1:10) such that the final concentration (in cuvette) is 10^-4 M and screened for activity. If active, IC50 values are determined from the inhibitory activity of subsequent concentrations.
Male Wistar rats are decapitated, brains rapidly removed, corpora striata dissected free, weighed and homogenized in 19 volumes (approximately 7 mg protein/ml) of 0.05M phosphate buffer, pH 7.2 using a Potter-Elvehjem homogenizer. A 25 microliter aliquot of the homogenate is added to 1.0 milliter vehicle or various concentrations of the test drug and preincubated for 10 minutes at 37° C.
Enzyme activity is measured with the Beckman DU-50 spectrophotometer. This method can be used for IC50 determinations and for measuring kinetic constants.
Reagents are added to the blank and sample cuvettes as follows:
Blank values are determined for each run to control for non-enzymatic hydrolysis of substrate and these values are automatically subtracted by the kindata program available on kinetics soft-pac module. This program also calculates the rate of absorbance change for each cuvette.
Substrate concentration is 10 mM diluted 1:2 in assay yielding final concentration of 5 mM. DTNB concentration is 0.5 mM yielding 0.25 mM final concentration. [formula] IC50 values are calculated from log-probit analysis

Row | SMILES | % of Animals with Scopolamine Induced Memory Deficit Reversal ([1]; mouse, in vivo, 0.63 mg/kg) [%] | IC50 (acetylcholinesterase) [µM] | % of Animals with Scopolamine Induced Memory Deficit Reversal ([1]; mice, 0.3 mg/kg of body weight, s.c, 24 hours) [%]
1 | Nc1c2c(nc3ccccc13)CCCC2 [Tacrine, reference compound] | 13 | – | –
2 | CN1CC[C@@]2(C)c3cc(OC(=O)N[C@@H]4CCN(OCc5ccccc5)C4=O)ccc3N(C)[C@@H]12 [(3aS-cis)-1,2,3,3a,8,8a-Hexahydro-1,3a,8-trimethylpyrrolo-[2,3-b]indol-5yl [2-oxo-1-(phenylmethoxy)-3R-pyrrolidinyl]carbamate] | – | 0.067 | –
3 | CN1CC[C@@]2(C)c3cc(OC(=O)N[C@@H]4CCN(O)C4=O)ccc3N(C)[C@@H]12 [(3aS-cis)-1,2,3,3a,8,8a-Hexahydro-1,3a,8-trimethylpyrrolo[2,3-b]indol-5-yl [2-oxo-1-(hydroxy)-3R-pyrrolidinyl]carbamate, citrate salt] | – | 2.31 | –
4 | CN1CC[C@@]2(C)c3cc(OC(=O)N[C@@H]4CON(Cc5ccccc5)C4=O)ccc3N(C)[C@@H]12 [(3aS-cis)-1,2,3,3a,8,8a-Hexahydro-1,3a,8-trimethypyrrolo-[2,3-b]indol-5-yl [2-(phenylmethyl)-3-oxo-4R-isoxazolidinyl]-carbamate hemihydrate] | – | 0.5 | 27
